Test results taken from ChEMBL document CHEMBL1641398, “Norlignans, acylphloroglucinols, and a dimeric xanthone from Hypericum chinense” (2010).
In brackets after ≈: the same amount, converted by molar mass.

Key:
Assay type in all cases: functional
[1] = tested on: Staphylococcus aureus; experiment: Antibacterial activity against epidemic methicillin-resistant Staphylococcus aureus 16 after 18 hrs by MTT assay; conditions: Staphylococcus aureus, 16, 18 h
[2] = tested on: Staphylococcus aureus; experiment: Antibacterial activity against erythromycin-resistant Staphylococcus aureus RN4220 after 18 hrs by MTT assay; conditions: RN4220, 18 h
[3] = tested on: Staphylococcus aureus; experiment: Antibacterial activity against multi drug-resistant Staphylococcus aureus 1199B after 18 hrs by MTT assay
[4] = tested on: Staphylococcus aureus; experiment: Antibacterial activity against Staphylococcus aureus ATCC […] after 18 hrs by MTT assay
[5] = tested on: Staphylococcus aureus; experiment: Antibacterial activity against multi drug-resistant Staphylococcus aureus XU212 after 18 hrs by MTT assay; conditions: XU212, 18 h
[6] = tested on: Staphylococcus aureus; experiment: Antibacterial activity against epidemic methicillin-resistant Staphylococcus aureus 15 after 18 hrs by MTT assay; conditions: Staphylococcus aureus, 15, 18 h

| SMILES | MIC [1] | MIC [2] | MIC [3] | MIC [4] | MIC [5] | MIC [6] |
| --- | --- | --- | --- | --- | --- | --- |
| CCn1cc(C(=O)O)c(=O)c2cc(F)c(N3CCNCC3)cc21 [NORFLOXACIN] | 128 µg/mL (≈ 401 µM) | 0.5 µg/mL (≈ 1.57 µM) | 32 µg/mL (≈ 100 µM) | 0.5 µg/mL (≈ 1.57 µM) | 8 µg/mL (≈ 25.1 µM) | 0.5 µg/mL (≈ 1.57 µM) |
| CCC(C)C(=O)c1c(O)cc(OC)c(C)c1O (stereo not drawn) [ASPIDINOL D] | 4 µg/mL (≈ 16.8 µM) | 8 µg/mL (≈ 33.6 µM) | 4 µg/mL (≈ 16.8 µM) | 8 µg/mL (≈ 33.6 µM) | 8 µg/mL (≈ 33.6 µM) | 4 µg/mL (≈ 16.8 µM) |
| COc1cc(O)c(C(=O)CC(C)C)c(O)c1C [ASPIDINOL C] | 4 µg/mL (≈ 16.8 µM) | 16 µg/mL (≈ 67.1 µM) | 2 µg/mL (≈ 8.39 µM) | 8 µg/mL (≈ 33.6 µM) | 32 µg/mL (≈ 134 µM) | 8 µg/mL (≈ 33.6 µM) |
